Assay results: ChEMBL document CHEMBL3621110, “Discovery and Development of the Aryl O-Sulfamate Pharmacophore for Oncology and Women's Health” (J Med Chem, 2015)

Experiments:
Rattus norvegicus [1] = species: Rattus norvegicus; assay: animal or person; assay type: functional; conditions: Wistar, po, 3 h
Rattus norvegicus [2] = species: Rattus norvegicus; assay: animal or person; assay type: functional; conditions: Wistar, Liver, po
Aromatase = molecular target: T1, Aromatase (Homo sapiens, UniProt P11511)
T1 sequence (P11511 whole entry): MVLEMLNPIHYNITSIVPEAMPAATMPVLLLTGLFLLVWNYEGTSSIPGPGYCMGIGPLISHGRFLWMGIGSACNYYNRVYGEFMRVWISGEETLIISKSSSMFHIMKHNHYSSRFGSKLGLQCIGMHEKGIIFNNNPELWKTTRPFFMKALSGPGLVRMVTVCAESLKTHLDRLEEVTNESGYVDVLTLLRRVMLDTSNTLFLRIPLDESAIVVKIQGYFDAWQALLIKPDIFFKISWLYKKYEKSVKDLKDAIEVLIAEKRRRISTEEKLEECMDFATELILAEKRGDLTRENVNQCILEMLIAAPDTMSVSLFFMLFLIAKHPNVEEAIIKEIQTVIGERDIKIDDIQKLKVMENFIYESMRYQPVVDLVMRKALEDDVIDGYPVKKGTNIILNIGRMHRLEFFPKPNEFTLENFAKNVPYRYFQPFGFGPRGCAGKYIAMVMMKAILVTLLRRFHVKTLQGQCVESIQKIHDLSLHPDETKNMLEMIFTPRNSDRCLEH

MDA-MB-231 [3] = assay: animal or person; assay type: functional, Homo sapiens; conditions: Mus musculus
MDA-MB-231 [4] = assay: animal or person; assay type: functional, Homo sapiens; conditions: Mus musculus; remark: listed apart in the source
in vivo [5] = conditions: MF1, mouse
in vivo [6] = conditions: mouse, po, 10 mg/kg
4T1 [7] = assay: animal or person; assay type: functional; conditions: Mus musculus
MCF7 [8] = assay: animal or person; assay type: functional, Homo sapiens; conditions: Mus musculus, MCF7, po
in vivo [9] = conditions: MF1, mouse; remark: listed apart in the source
4T1 [10] = assay: animal or person; assay type: functional; conditions: Mus musculus; remark: listed apart in the source
in vivo [11] = conditions: MF1, mouse; remark: listed apart in the source
MCF7 [12] = assay: animal or person; assay type: functional, Homo sapiens; conditions: Mus musculus, MCF7, po; remark: listed apart in the source
in vivo [13] = conditions: MF1, mouse; remark: listed apart in the source
Steryl-sulfatase [14] = molecular target: T2, Steryl-sulfatase (Homo sapiens, UniProt P08842); parameters: species or system Placenta, Microsome
T2 sequence (P08842 whole entry): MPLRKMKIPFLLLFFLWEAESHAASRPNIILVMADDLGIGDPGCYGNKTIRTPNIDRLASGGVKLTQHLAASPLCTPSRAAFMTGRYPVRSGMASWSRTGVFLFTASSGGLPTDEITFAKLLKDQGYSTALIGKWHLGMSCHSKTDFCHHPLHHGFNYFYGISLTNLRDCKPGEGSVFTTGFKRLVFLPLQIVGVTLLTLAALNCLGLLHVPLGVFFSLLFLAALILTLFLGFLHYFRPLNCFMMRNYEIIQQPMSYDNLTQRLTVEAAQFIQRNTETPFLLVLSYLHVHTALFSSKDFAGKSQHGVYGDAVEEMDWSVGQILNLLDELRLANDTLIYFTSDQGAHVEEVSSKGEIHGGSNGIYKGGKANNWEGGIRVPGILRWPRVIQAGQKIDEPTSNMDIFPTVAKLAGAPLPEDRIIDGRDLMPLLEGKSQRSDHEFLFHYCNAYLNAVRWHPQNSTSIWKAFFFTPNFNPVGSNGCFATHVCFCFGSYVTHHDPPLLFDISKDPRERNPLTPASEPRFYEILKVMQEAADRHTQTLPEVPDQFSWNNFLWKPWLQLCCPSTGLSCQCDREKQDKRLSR

MCF7 [15] = assay: animal or person; assay type: functional, Homo sapiens; conditions: Mus musculus, MCF7, po, 1176 h
in vivo [16] = conditions: Wistar, rat, po, 10 mg/kg
Homo sapiens [17] = species: Homo sapiens; assay type: functional; conditions: at 80 mg/day
Homo sapiens [18] = species: Homo sapiens; assay type: functional; conditions: at 5 mg/day
MCF7 [19] = assay: animal or person; assay type: functional, Homo sapiens; conditions: Mus musculus, MCF7, po, 1176 h; remark: listed apart in the source
MCF7 [20] = assay: animal or person; assay type: functional, Homo sapiens; conditions: Mus musculus, MCF7, po, 1176 h; remark: listed apart in the source
Steryl-sulfatase [21] = molecular target: T2, Steryl-sulfatase; assay type: microsomes, Placenta, Microsome
Rattus norvegicus [22] = species: Rattus norvegicus; assay: animal or person; assay type: functional; conditions: Liver, po, 120 h
MCF7 [23] = assay: animal or person; assay type: functional, Homo sapiens; conditions: Mus musculus, MCF7, po, 1176 h; remark: listed apart in the source
MDA-MB-231 [24] = assay: animal or person; assay type: functional, Homo sapiens; conditions: Mus musculus, MDA-MB-231, po, 840 h
MDA-MB-231 [25] = assay: cells; assay type: functional; conditions: Homo sapiens
DU-145 [26] = assay: cells; assay type: functional; conditions: Homo sapiens
Steryl-sulfatase [27] = molecular target: T2, Steryl-sulfatase
Estrogen receptor = molecular target: T3, Estrogen receptor (Homo sapiens, UniProt P03372)
T3 sequence (P03372 whole entry): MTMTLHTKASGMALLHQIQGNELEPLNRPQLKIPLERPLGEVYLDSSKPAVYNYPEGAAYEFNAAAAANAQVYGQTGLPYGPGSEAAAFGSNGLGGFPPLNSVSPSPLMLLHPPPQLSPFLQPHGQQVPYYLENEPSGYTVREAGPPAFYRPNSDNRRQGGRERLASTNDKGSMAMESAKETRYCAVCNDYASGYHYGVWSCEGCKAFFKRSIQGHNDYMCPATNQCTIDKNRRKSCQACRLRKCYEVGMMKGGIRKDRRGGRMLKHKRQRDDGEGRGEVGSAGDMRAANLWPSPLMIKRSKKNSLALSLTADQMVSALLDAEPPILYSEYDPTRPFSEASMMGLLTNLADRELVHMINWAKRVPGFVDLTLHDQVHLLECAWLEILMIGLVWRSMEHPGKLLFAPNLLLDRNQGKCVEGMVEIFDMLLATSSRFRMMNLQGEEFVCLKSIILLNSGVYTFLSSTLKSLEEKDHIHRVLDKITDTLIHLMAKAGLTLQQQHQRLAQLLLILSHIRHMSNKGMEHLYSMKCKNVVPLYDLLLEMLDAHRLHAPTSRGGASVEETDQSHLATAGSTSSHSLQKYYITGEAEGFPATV

Steryl-sulfatase [28] = molecular target: T2, Steryl-sulfatase; assay type: cell-based, HEK293
DU-145 [29] = assay: cells; assay type: functional; conditions: Homo sapiens, DU-145, 96 h
MDA-MB-231 [30] = assay: cells; assay type: functional; conditions: Homo sapiens, MDA-MB-231, 96 h
Carbonic anhydrase 2 = Carbonic anhydrase 2 (Homo sapiens, UniProt P00918)
Rattus norvegicus [31] = species: Rattus norvegicus; assay: animal or person; assay type: functional; conditions: Wistar, Liver, po, 24 h
Rattus norvegicus [32] = species: Rattus norvegicus; assay: animal or person; assay type: functional; conditions: Wistar, Liver, po, 24 h; remark: listed apart in the source
Rattus norvegicus [33] = species: Rattus norvegicus; assay: animal or person; assay type: functional; conditions: Wistar, Liver, sc, 168 h
Rattus norvegicus [34] = species: Rattus norvegicus; assay: animal or person; assay type: functional; conditions: Liver, po, 2 h
Rattus norvegicus [35] = species: Rattus norvegicus; assay: animal or person; assay type: functional; conditions: po, 2 h
MCF7 [36] = assay: cells; assay type: functional; conditions: Homo sapiens
Homo sapiens [37] = species: Homo sapiens; assay type: functional
Homo sapiens [38] = species: Homo sapiens; assay type: functional; remark: listed apart in the source
Rattus norvegicus [39] = species: Rattus norvegicus; assay: animal or person; assay type: functional; conditions: po, 2 h; remark: listed apart in the source
Homo sapiens [40] = species: Homo sapiens; assay type: functional; remark: listed apart in the source
Rattus norvegicus [41] = species: Rattus norvegicus; assay: animal or person; assay type: functional; conditions: po, 2 h; remark: listed apart in the source
Rattus norvegicus [42] = species: Rattus norvegicus; assay: animal or person; assay type: functional; conditions: Wistar, Liver, sc, 168 h; remark: listed apart in the source
Rattus norvegicus [43] = species: Rattus norvegicus; assay: animal or person; assay type: functional; conditions: Liver, po, 2 h; remark: listed apart in the source
Homo sapiens [44] = species: Homo sapiens; assay type: functional; remark: listed apart in the source
Rattus norvegicus [45] = species: Rattus norvegicus; assay: animal or person; assay type: functional; conditions: Liver, po, 2 h; remark: listed apart in the source

SMILES: N#Cc1ccc(N(Cc2ccc(Br)cc2)n2cnnc2)cc1
- inhibition in vivo at 10 mg/kg (Rattus norvegicus [1]): 70%
- inhibition in vivo at 10 mg/kg (Rattus norvegicus [2]): ≥ 98%
- IC50 (Aromatase): 0.12 nM

SMILES: COc1cc2c(cc1OS(N)(=O)=O)CC[C@@H]1[C@@H]2CC[C@]2(C)[C@@H](OS(N)(=O)=O)CC[C@@H]12
- ED50 (MDA-MB-231 [3]): 20 mg/kg
- ED50 (MDA-MB-231 [4]): 10 mg/kg
- selectivity ratio (in vivo [5]): 4
- bioavailability at 24 h (in vivo [6]): 85%
- inhibition in vivo at 20 mg/kg/day (4T1 [7]): 80.4%
- inhibition in vivo at 5 mg/kg (MCF7 [8]): 46%
- LD50 (in vivo [9]): 80 mg/kg
- inhibition in vivo at 20 mg/kg/day (4T1 [10]): 35%
- selectivity ratio (in vivo [11]): 3
- inhibition in vivo at 20 mg/kg (MCF7 [12]): 52%
- LD50 (in vivo [13]): 30 mg/kg

SMILES: NS(=O)(=O)Oc1ccc2c(c1)OC(=O)C1CCCCCC21 (stereo not drawn)
- IC50 (Steryl-sulfatase [14]): 8 nM
- inhibition in vivo at 20 mg/kg (MCF7 [15]): 79%
- bioavailability (in vivo [16]): 95%
- inhibition (INH) (Homo sapiens [17]): >=95%
- inhibition (INH) (Homo sapiens [18]): >=95%
- inhibition in vivo at 20 mg/kg (MCF7 [19]): 39%

SMILES: CCCN1C(=O)C[C@H]2[C@@H]3CCc4cc(OS(N)(=O)=O)ccc4[C@H]3CC[C@]2(C)C1=O
- inhibition in vivo at 10 mg/kg (MCF7 [20]): 39%
- IC50 (Steryl-sulfatase [21]): 1 nM
- inhibition in vivo at 10 mg/kg/day (Rattus norvegicus [22]): 99%
- inhibition in vivo at 10 mg/kg (MCF7 [23]): 56%

SMILES: COc1cc2c(cc1OS(N)(=O)=O)CCN(Cc1cc(OC)c(OC)c(OC)c1)C2
- inhibition in vivo at 20 mg/kg/day (MDA-MB-231 [24]): 84%
- GI50 (MDA-MB-231 [25]): 329 nM
- GI50 (DU-145 [26]): 297 nM

SMILES: CC(C)(C#N)c1cc(Cn2cncn2)cc(Sc2ccc(OS(N)(=O)=O)c(Cl)c2)c1
- IC50 (Steryl-sulfatase [27]): 3000 nM

SMILES: CCN(Cc1ccc(C(=O)N2CCc3ccc(OS(N)(=O)=O)cc3C2)cc1)Cc1ccccn1
- IC50 (Estrogen receptor): 3100 nM
- IC50 (Steryl-sulfatase [28]): 300 nM

SMILES: CCN(CC)CCOCC[C@@]1(C)CC[C@H]2[C@@H]3[C@H](C)Cc4cc(OS(N)(=O)=O)ccc4[C@H]3CC[C@@]21C
- GI50 (DU-145 [29]): 51 nM
- GI50 (MDA-MB-231 [30]): 71 nM

SMILES: CCc1cc2c(cc1OS(N)(=O)=O)CC[C@@H]1[C@@H]2CC[C@]2(C)[C@@H](OS(N)(=O)=O)CC[C@@H]12
- Ki (Carbonic anhydrase 2): 232 nM

SMILES: NS(=O)(=O)Oc1ccc(C(=O)c2ccc(OS(N)(=O)=O)cc2)cc1
- inhibition in vivo at 1 mg/kg (Rattus norvegicus [31]): 84%
- inhibition in vivo at 10 mg/kg (Rattus norvegicus [32]): 93%

SMILES: C[C@]12CC[C@@H]3c4ccc(OS(N)(=O)=O)cc4CC[C@H]3[C@@H]1CCC2=O [EMATE]
- inhibition in vivo at 0.1 mg/kg (Rattus norvegicus [33]): 87%
- inhibition in vivo at 20 mg/kg (Rattus norvegicus [34]): 98%
- inhibition in vivo at 40 mg/kg (Rattus norvegicus [35]): 98%
- GI50 (MCF7 [36]): 22800 nM
- inhibition (INH) (Homo sapiens [37]): 34%
- inhibition (INH) (Homo sapiens [38]): 72%
- inhibition in vivo at 20 mg/kg (Rattus norvegicus [39]): 98%
- inhibition (INH) (Homo sapiens [40]): 41%
- inhibition in vivo at 10 mg/kg (Rattus norvegicus [41]): 98%
- inhibition in vivo at 0.1 mg/kg (Rattus norvegicus [42]): 87%
- inhibition in vivo at 10 mg/kg (Rattus norvegicus [43]): 98%
- inhibition (INH) (Homo sapiens [44]): 50%
- inhibition in vivo at 40 mg/kg (Rattus norvegicus [45]): 98%
